Measurements published in article PMC3188562, “Hyperforin Inhibits Akt1 Kinase Activity and Promotes Caspase-Mediated Apoptosis Involving Bad and Noxa Activation in Human Myeloid Tumor Cells” (PLoS ONE, 2011).
pIC50: −log10 of the molar value.

Target: Akt1 (Homo sapiens, UniProt P31749)
Sequence (P31749 whole entry): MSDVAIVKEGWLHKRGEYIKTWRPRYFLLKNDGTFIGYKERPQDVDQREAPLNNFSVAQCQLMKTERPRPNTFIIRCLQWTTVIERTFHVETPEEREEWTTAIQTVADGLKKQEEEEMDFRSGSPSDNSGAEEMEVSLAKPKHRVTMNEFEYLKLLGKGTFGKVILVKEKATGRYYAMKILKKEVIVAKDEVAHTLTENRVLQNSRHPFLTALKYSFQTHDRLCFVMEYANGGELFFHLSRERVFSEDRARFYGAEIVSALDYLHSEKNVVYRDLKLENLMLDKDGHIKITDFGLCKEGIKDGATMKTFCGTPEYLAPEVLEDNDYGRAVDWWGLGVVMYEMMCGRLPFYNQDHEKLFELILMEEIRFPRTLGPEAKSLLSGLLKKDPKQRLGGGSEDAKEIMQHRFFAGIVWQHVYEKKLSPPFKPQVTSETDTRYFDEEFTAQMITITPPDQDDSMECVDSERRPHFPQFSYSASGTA

Question: With `CC(C)=CCCC1(C)C(CC=C(C)C)CC2(CC=C(C)C)C(=O)C(CC=C(C)C)=C(O)C1(C(=O)C(C)C)C2=O` (stereo not drawn) [HF, 5-hydroxy-6R-methyl-1R,3,7S-tris(3-methyl-2-butenyl)-5S-(2-methyl-1-oxopropyl)-6R-(4-methyl-3-pentenyl)-bicyclo[3.3.1]non-3-ene-2,9 dione] as the molecule, how does the pIC50 read?
Answer: 5.60
